Experimental data taken from patent publication US12171744B2, “Pharmaceutical combinations for the treatment of cancer” (Presage Biosciences, Inc., priority 2016, dated 2024).
Entries after “also recorded” stand apart in the source; their conditions may differ.

How the values were obtained:
[1] = tested on: NUDHL1 model of DLBCL; assay: Xenograft tumor growth; type: in vivo, NOD SCID mice; conditions: Voruciclib 200 mpk, Venetoclax 50 mpk
Protocol: Immune deficient NOD SCID mice were implanted with the NUDHL1 model of DLBCL. The xenografted tumors were allowed to grow in the NOD SCID host until they reached 200 mm^3, at which point the xenografted animals were randomized into 4 study groups: 1. Vehicle control; 2. […] Venetoclax at 50 mpk; and 4. […] Venetoclax was dosed by oral gavage on days 1 and 4 of each weekly cycle. Drug effects were assessed via tumor volume measurements twice weekly by a technician blinded to the treatment of each subject in the study. N=5-6 animals per treatment arm.

[2] = tested on: HCC1187 triple negative breast cancer cells; assay: Western blot of treated cells; type: cell-based
Protocol: (§1) Cell lines shown in Table 1, adherent or suspension, were treated in 6-well dishes or T10 flasks respectively, seeded at one million per ml density prior to treatment in total volumes of 3-10 ml. All agents used for in vitro cell treatments were formulated in water/DMSO to achieve required concentrations (as stated in respective figure labels/legends) with DMSO concentrations not exceeding 0.01%. Drug sources are indicated in table under ‘CIVO microinjection studies’. Cells were harvested at experimental time points: 2, 6, or 24 hours post treatment as indicated in respective figures, first by washing cells twice in ice-cold PBS in 15 ml falcon tubes, centrifugation at 1000 rpm for 5 mins followed by lysis of the respective cell pellets as described in section below. Note: Drug resistant NUDHL1 Dox 1000 nM and Toledo Dox 1000 nM cell lines were generated at Presage by culturing parental lines in media with stepwise increments in Doxorubicin concentration over several passages. These cells were used to generate xenografts when resistance to 1 uM Dox was achieved.
Protein lysates were prepared by adding ice-cold 1×RIPA Buffer (from 10×, Millipore) with 1×-3× Halt protease and phosphatase inhibitor cocktail (100×, Pierce) to cell pellets, followed by pulse sonication (˜3-5 secs) three times. Lysates were cleared by centrifugation at 14K rpm for 15-20 mins and the supernatant (lysate) was collected for further analysis. To prepare lysates from cryopreserved xenograft tumor tissue, tissue was first homogenized using a hand-held tissue homogenizer (Cole Palmer) in above lysis buffer followed by pulse sonication and centrifugation as described above. Above steps were carried out under ice cold conditions. […] 20-25 micrograms of protein from each sample were subject to SDS-PAGE using BOLT 4-12% Bis-Tris gels (Thermofisher) and transferred to either 0.45 or 0.2 micron pore size membranes (as applicable based on protein molecular size), and either nitrocellulose (NC) or pvdf (Thermofisher) using manufacturer's protocol, blocked for one hour in 5% milk at room temperature, probed with primary antibodies (Table 2) at 4 deg C. overnight and corresponding HRP-conjugated secondary antibodies (Jackson Immunoresearch, 1:10,000-1:20,000 dilutions) for 1 hour at room temperature. Three PBS/0.01% Tween-20 washes (5-10 mins each) were carried out after each antibody incubation. ECL chemiluminescent substrate (Pierce or GE) and autoradiographic film (Thermofisher) was used for detection of protein signals.
1 ug of mRNA from each condition was used to generate cDNA using the High Capacity cDNA Reverse Transcription Kit (Applied Biosystems) and manufacturer's protocol. 100 ng cDNA was used to conduct a PCR assay to amplify XBP1 u or splice forms (Thermofisher PCR Supermix)—94 deg C. for 2 mins, (94 deg C. for 15 secs, 55 deg C. for 30 secs, 72 deg C. for 1 min)×30 cycles, 72 deg C. for 7 mins, hold at 4 deg C.

[3] = tested on: NudHL1 DLBCL xenografts; assay: CIVO microinjection, CC3 staining after 6 hours; type: in vivo, mice; conditions: treated for 6 hours
Protocol: Mice were enrolled into CIVO drug studies when the tumor volume reached approximately 1000 mm^3. Microinjection studies were performed using the CIVO device as previously described (Klinghoffer et al, Science Translational Medicine 2015) The device was configured with 6 injection needles set for a 6 mm injection length and a total volume delivery of 3 μl. A fluorescent tracking marker (FTM) was added to each drug reservoir in vehicle for delivery along with each drug or drug combination. […] Total amounts of agents injected are tabulated below in Table 4.
FIGS. 9A-9D depict cells that were treated as above and stained for cleaved caspase-3 (CC3) as a marker of apoptosis (shown in red).
FIGS. 10A-10D depict cells that were treated as above and stained for cleaved caspase-3 (CC3) as a marker of apoptosis (shown in red).

[4] = tested on: OCI Ly10 model of DLBCL; assay: Western blot of treated cells; type: cell-based; conditions: 5 uM voruciclib, 50 nM venetoclax; 24 h
Protocol: as §1, with “These cells were used to generate xenografts when resistance to 1 uM Dox was achieved.” left out
(§2) Protein lysates were prepared by adding ice-cold 1×RIPA Buffer (from 10×, Millipore) with 1×-3× Halt protease and phosphatase inhibitor cocktail (100×, Pierce) to cell pellets, followed by pulse sonication (˜3-5 secs) three times. […] Protein samples were quantified using Bradford assay (Biorad) at 1:10 or higher dilutions using appropriate blank controls with 1×RIPA. […]

[5] = tested on: 38 different kinases; assay: Comparison of inhibition profiles on 38 different kinases; type: biochemical; conditions: compared with flavopiradol
[6] = tested on: U2932 model of DLBCL; assay: Western blot of treated cells; type: cell-based; conditions: increasing concentration of voruciclib, single agent
Protocol: as §1, with “These cells were used to generate xenografts when resistance to 1 uM Dox was achieved.” left out
as §2

[7] = Body weight in HCC1187 TNBC mouse model; conditions: in vivo
Protocol: Mice were enrolled for study when tumors reached an average volume of 150-200 mm^3. Tumor volume was calculated as V=length×width×height, all three dimensions measured using digital calipers along with body weight. Animals were removed from the study when—any one of the three measured dimensions of the tumor exceeding 2 cm, volume exceeding 2500 mm^3, ulceration or body weight loss greater than 20%.

[8] = Western blot, voruciclib and bortezomib in combination

SMILES: CN1CC[C@@H](c2c(O)cc(O)c3c(=O)cc(-c4ccc(C(F)(F)F)cc4Cl)oc23)[C@@H]1CO (relative stereo) [voruciclib, (+)-trans-2-(2-Chloro-4-trifluoromethylphenyl)-5,7-dihydroxy-8-(2-hydroxymethyl-1-methylpyrrolidin-3-yl)-chromen-4-one]
- tumor size (images) [1]: smaller
- MCL-1 protein expression ([2]; Western blot, compared to untreated sample): reduced
- bortezomib-induced increase in MCL-1 expression [2, 8]: decreased; also recorded: diminishes
- bortezomib-induced upregulation of XIAP [2, 8]: diminishes
- XBP1 upregulation ([2]; voruciclib combined with either bortezomib or tunicamycin): diminished
- CC3 expression [3]: little to no increase
- apoptosis (cleaved PARP) [4]: neither compound significantly induces apoptosis as a single agent
- specificity for CDKs [5]: more specific for CDKs than flavopiradol
- MCL-1 [6]: suppresses
- apoptosis (cPARP) [6]: increases as the concentration of voruciclib increases
- body weight of mice [7]: unaffected
